Results from article PMC8308721 (Pharmaceutics, 2021).
Where “and” joins values, the source holds several entries; their conditions need not be identical. Equal entries are not always repeated. Entries after “also recorded” stand apart in the source; their conditions may differ.

Tests used:
[1] = Peptide stability in mouse plasma (UPLC); assay type: in vitro ADME; details: for Recovered Peptide after 1 h in Mouse Plasma [%]: CD-1 mouse plasma, 37 °C, esters recovered as the corresponding acid
Description: (§1) The in vitro stability of peptides was assessed according to a previously described protocol with modifications. Peptides (3 g/L, 49 µL) dissolved in […] (DMSO/TWEEN 80/normal saline (5/5/90, v/v/v) were diluted with pooled mouse dipotassium ethylenediaminetetraacetic acid containing pooled plasma (Innovative Research, Novi, MI, USA) or pooled human cerebrospinal fluid (CSF) (both BioIVT, Westbury, NY, USA) to a total volume of 500 µL. The final peptide concentration was kept constant at 315 µmol/L in all experiments. The mixture was incubated (37 °C, 750 rpm; Thermomixer, Eppendorf AG, Hamburg, Germany) and an aliquot (95 µL) was taken at 0, 5, 15, 60, and 300 min. For peptide quantification, the sample was mixed with aqueous acetonitrile (90%, v/v, 300 µL) containing FA, 0.1% v/v and incubated on ice for 30 min. After two centrifugation steps (21,100× g, 3 min, Sorvall Legend Micro 21R Centrifuge, Thermo Scientific, Waltham, MA, USA), the supernatant (300 µL) was collected, freeze-dried (FreeZone Triad Cascade Benchtop, Labcono, Kansas City, MO, USA), reconstituted in aqueous acetonitrile (4.5%, v/v) containing FA (0.1%, v/v), and stored at −20 °C. Samples were analyzed by ultra-performance liquid chromatography (UPLC).
An ACQUITY UPLC H-Class chromatography system (Waters, Milford, MA, USA) coupled on-line to a photodiode array detector (absorbance recorded at 214 nm, Waters) and to the electrospray ionization source on a mass spectrometer (QDa detector, Waters) operated in the positive ion mode was used. Separation relied on a BEH-C18 column (inner diameter: 1.1 mm; length: 50 mm; particle size: 1.7 µm, Waters) at a flow rate of 0.1 mL/min using a linear aqueous acetonitrile gradient in the presence of FA (0.1%, v/v). Ionization was carried out at a source temperature of 450 °C using a cone voltage of 10 V and a capillary voltage of 1.5 kV. Mass spectra were typically acquired for an m/z range from 50 to 1250 at a sampling rate of 2 points per second. Quantities of the degraded peptides and resulting metabolites were estimated using peak areas of the UV signal at 214 nm relative to the initial peak areas (t = 0). Metabolites were identified using mass spectrometry by detecting the singly charged molecular ions.

female CD-1 mice [2] = experiment: Hot-plate test; assay type: in vivo, mouse; details: for Antinociception (AUC0-5h, %MPE·h): s.c. 20 µmol/kg (~13 mg/kg), female CD-1 mice
Description: Animal use and procedures were in accordance with the guidelines of The University of British Columbia animal care committee and the Canadian Council for Animal Care (CCAC, Protocol code: A17-0128, approval date: 30 August 2018). Experiments involved adult female CD-1 mice (25–30 g) housed under a 12 h light/dark cycle and had ad libitum access to rodent chow and water. Mice were allowed an acclimatization period of at least one week in the animal facility before experiments. Subcutaneous (s.c.) or intraperitoneal (i.p.) injections of drugs or vehicles were administered to animals at a volume of 10 mL/kg. In the formalin foot assay, each mouse was used once and euthanized immediately upon completion of the experiment due to irreversible tissue damage in the injected paw.
(§2) A commercially available hot-plate analgesia meter consisting of a round aluminum surface with (25 cm diameter) from Harvard Apparatus (Holliston, MA, USA) was used. A day before the experiment mice were acclimatized for 5 min in a transparent Plexiglas cylinder (height, 30 cm; diameter, 25 cm) on the switched-off hot-plate apparatus. Thereafter, the baseline latency of each animal was measured on the hot surface (52.0 ± 0.1 °C, 30 s cut-off time to prevent tissue damage) until a nociceptive response was induced. The animal was immediately removed from the hot surface after licking, lifting, or fluttering of the hind paws was observed. Latency responses after treatment were obtained in the same way. The %MPE for each animal was calculated using this equation: %MPE = (LR − BR)/(MR − BR)100%, where LR, MR, and BR represent measured, maximum (30 s), and baseline (~5 s) response time, respectively. The AUC for each animal was calculated from the %MPE time courses using this equation: AUC = (%MPE(Tp1) + %MPE(Tp2))·(Tp2 − Tp1)/2, where Tp represents the time interval between adjacent time points on the curve. Data were plotted as mean ± SEM.

human DOR = target: T1, human DOR (Homo sapiens, UniProt P41143); experiment: Competitive radioligand ([3H]DADLE) displacement assay at DOR; assay type: binding; details: analog at 6 nM
T1 construct: host or cells: COS-1 cells
Description: The binding affinity of peptides to the DOR was performed by Eurofins Cerep SA (Celle-Lévescault, France) using a competitive radioligand displacement assay according to a previously described method.

[3] = Peptide stability in human cerebrospinal fluid (UPLC); assay type: in vitro ADME; details: pooled human cerebrospinal fluid, pooled human CSF, read-out: peptide recovered in CSF after 5 h of incubation
Description: as §1, with “After two centrifugation steps (21,100× g, 3 min, Sorvall Legend Micro 21R Centrifuge, Thermo Scientific, Waltham, MA, USA), the supernatant (300 µL) was collected, freeze-dried (FreeZone Triad Cascade Benchtop, Labcono, Kansas City, MO, USA), reconstituted in aqueous acetonitrile (4.5%, v/v) containing FA (0.1%, v/v), and stored at −20 °C.” left out
An ACQUITY UPLC H-Class chromatography system (Waters, Milford, MA, USA) coupled on-line to a photodiode array detector (absorbance recorded at 214 nm, Waters) and to the electrospray ionization source on a mass spectrometer (QDa detector, Waters) operated in the positive ion mode was used. […] Quantities of the degraded peptides and resulting metabolites were estimated using peak areas of the UV signal at 214 nm relative to the initial peak areas (t = 0). […]

female CD-1 mice [4] = experiment: Formalin foot assay; assay type: in vivo, mouse; details: morphine 10 mg/kg s.c.
Description: On the day of the experiment, mice were acclimatized to the experimental setup by putting them in darkened, non-transparent plexiglas cylinders (height, 20 cm; diameter, 9 cm) placed on a glass plane for 2 h. […] After successful injection, mice were immediately placed into cylinders and their behavior was monitored for 1 h. Video cameras (Lorex Technology, Markham, ON, Canada) underneath each animal were used to record the nociceptive responses defined as licking or biting at the formalin injected right paw. The accumulated licking and biting time of each animal was determined and recorded in 5 min bins. The total response time was plotted as early phase 1 from 0 to 5 min, and late phase 2 from 20 to 40 min after formalin injection.

female CD-1 mice [5] = experiment: Respiratory depression assay; assay type: in vivo, mouse
Description: The respiratory rate was assessed in awake mice lightly restrained in a well-ventilated 50 mL falcon tube with a darkened tip. Prior to the drug treatment, each animal was habituated in the tube for 30 min. The falcon tube was secured onto a stand facing lengthwise towards a video camera. […] Animals were recorded at selected time points for 10 min to measure the respiration rate.

female CD-1 mice [6] = experiment: Dependence study, Nlx-induced jumps; details: 8 days, Nlx 4 mg/kg i.p.
Description: Two hours after the last injection at 3 PM, mice received an i.p. injection of Nlx (4 mg/kg), after which they were immediately placed in a Plexiglas cylinder (height, 30 cm; diameter, 25 cm). The number of jumps induced by Nlx, defined as simultaneous removal of all four paws from the ground surface, were counted.

[7] = day six of treatment; cited from earlier work
C57BL6 mice = details: cited from earlier work
mice = details: mouse, in vivo; cited from earlier work
female CD-1 mice [8] = experiment: Safety test in mice, escalating doses; assay type: in vivo, mouse
Text: (§3) Throughout the eight-day duration of experiments investigating the development of physical dependence and tolerance, clinical health scores (CHS) of mice on a 5-point scale (0 normal and 5 highest severity) provided by the University of British Columbia Animal Care Committee were monitored. Scores were given in 5 categories (appearance (grooming, posture), behavior (gait, activity), local injection site skin appearance, neurological signs, and body weight). Based on the guidelines, mice with a score of 5 in any category or a cumulative score of >15, or body weight loss of >20% would be euthanized.
Mice were then monitored for mortality and clinical signs including respiratory activity, body weight, hydration, behavior (self-biting and circling), and pain assessment (Facial Grimace) to determine the maximum tolerated dose.

female CD-1 mice [9] = experiment: Tolerance study, hot-plate after repeated dosing; assay type: in vivo, mouse; details: multidose tolerance and physical dependence tests, 5-point scale
Text: as §3
as §2, with “A day before the experiment mice were acclimatized for 5 min in a transparent Plexiglas cylinder (height, 30 cm; diameter, 25 cm) on the switched-off hot-plate apparatus.” left out, “The animal was immediately removed from the hot surface after licking, lifting, or fluttering of the hind paws was observed. Latency responses after treatment were obtained in the same way.” left out, “Data were plotted as mean ± SEM.” left out

plasma = details: cited from earlier work
[10] = pooled mouse dipotassium ethylenediaminetetraacetic acid containing pooled plasma; details: 37 °C, up to 300 min
[11] = morphine s.c. 10 mg/kg, hot-plate

T1 sequence (P41143 whole entry): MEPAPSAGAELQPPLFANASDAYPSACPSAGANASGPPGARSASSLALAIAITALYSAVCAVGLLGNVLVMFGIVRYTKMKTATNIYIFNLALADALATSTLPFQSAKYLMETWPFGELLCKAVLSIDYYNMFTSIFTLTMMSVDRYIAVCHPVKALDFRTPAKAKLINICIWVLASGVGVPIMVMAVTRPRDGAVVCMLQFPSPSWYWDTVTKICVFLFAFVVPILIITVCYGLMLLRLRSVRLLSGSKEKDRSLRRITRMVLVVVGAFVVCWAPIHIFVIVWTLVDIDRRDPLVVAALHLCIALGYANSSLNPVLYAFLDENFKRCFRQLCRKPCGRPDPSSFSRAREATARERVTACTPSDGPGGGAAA

Compound: COC(=O)[C@H](CC(C)C)NC(=O)[C@H](Cc1ccccc1)NC(=O)CNC(=O)CNC(=O)[C@H](Cc1ccc(O)cc1)NC(=O)C1CCCCC1 [KK-112]
- Recovered Peptide after 1 h in Mouse Plasma [%] [1]: 62 ± 4%
- Antinociception (AUC0-5h, %MPE·h) (female CD-1 mice [2]; hot-plate): 51 ± 10 %MPE·h

Compound: COC(=O)[C@H](CC(C)C)NC(=O)[C@H](Cc1ccccc1)NC(=O)CNC(=O)CNC(=O)[C@H](Cc1ccc(O)cc1)NC(=O)Cc1ccccc1 [KK-81]
- Recovered Peptide after 1 h in Mouse Plasma [%] [1]: 88 ± 7%
- Relative Binding to DOR Compared to Leu-ENK [%] (human DOR): 41 ± 25%

Compound: CCCCCC(=O)N[C@@H](Cc1ccc(O)cc1)C(=O)NCC(=O)NCC(=O)N[C@@H](Cc1ccccc1)C(=O)N[C@@H](CC(C)C)C(=O)OC [KK-93]
- Recovered Peptide after 1 h in Mouse Plasma [%] [1]: 85 ± 7%
- Antinociception (AUC0-5h, %MPE·h) (female CD-1 mice [2]; hot-plate): 51 ± 13 %MPE·h

Compound: COC(=O)[C@H](CC(C)C)NC(=O)[C@H](Cc1ccccc1)NC(=O)CNC(=O)CNC(=O)[C@H](Cc1ccc(O)cc1)NC(=O)C(C)(C)C [KK-102]
- Recovered Peptide after 1 h in Mouse Plasma [%] [1]: 94 ± 5% and 94 ± 3%
- half-life ([1]; mouse, plasma): 2.5 min
- increase of antinociception AUC compared to Leu-ENK (female CD-1 mice [2]; hot-plate, s.c. ~13 mg/kg): 8 fold
- Antinociception (AUC0-5h, %MPE·h) (female CD-1 mice [2]; hot-plate): 112 %MPE·h and 112 ± 24 %MPE·h

Compound: CCCCCCCC(=O)N[C@@H](Cc1ccc(O)cc1)C(=O)NCC(=O)NCC(=O)N[C@@H](Cc1ccccc1)C(=O)N[C@@H](CC(C)C)C(=O)OC [KK-108]
- Recovered Peptide after 1 h in Mouse Plasma [%] [1]: 73 ± 4%
- Antinociception (AUC0-5h, %MPE·h) (female CD-1 mice [2]; hot-plate): 48 ± 15 %MPE·h

Compound: CC(C)C[C@H](NC(=O)[C@H](Cc1ccccc1)NC(=O)CNC(=O)CNC(=O)[C@@H](N)Cc1ccc(O)cc1)C(=O)O [Leu-ENK, Leu-Enkephalin]
- intact peptide remaining in plasma after 5 h of incubation ([1]; 5 h, plasma): undetectable
- Recovered Peptide after 1 h in Mouse Plasma [%] [1]: 23 ± 3% and 23 ± 2%
- remaining at 5 h, 315 µmol/L [3]: > 80%
- Antinociception (AUC0-5h, %MPE·h) (female CD-1 mice [2]; hot-plate): 14 %MPE·h and 14 ± 6 %MPE·h
- peak antinociception (female CD-1 mice [2]; s.c. 13 mg/kg, hot-plate): ~ 10 %MPE
- time of decline of antinociception to baseline (female CD-1 mice [2]; s.c. 13 mg/kg, hot-plate): 1.5 h
- time of peak antinociception post-injection (female CD-1 mice [2]; s.c. 13 mg/kg, hot-plate): 1 h

Compound: CN1CC[C@]23c4c5ccc(O)c4O[C@H]2[C@@H](O)C=C[C@H]3[C@H]1C5 [morphine]
- antinociception at 2 h (female CD-1 mice [2]; morphine s.c. 10 mg/kg, 2 h): ~ 10 %MPE
- maximum antinociception (female CD-1 mice [2]; [11]): 87 %MPE
- time to maximum antinociception (female CD-1 mice [2]; [11]): ≤ 15 min
- reduction of paw licking and biting time compared to control, phase 1 (female CD-1 mice [4]; phase 1 (0–5 min)): 30%
- nociceptive response, phase 2 (female CD-1 mice [4]; phase 2 (20–40 min)): completely diminished the nociceptive response
- decrease of respiratory rate compared with vehicle (female CD-1 mice [5]; morphine 10 mg/kg s.c., 30 min post-injection): 56%
- physical dependence, Nlx-induced withdrawal (female CD-1 mice [6]; morphine 10 mg/kg twice daily): significant withdrawal syndromes
- residual effect of morphine [7]: approximately 30%
- time of peak effect (C57BL6 mice): 20 min
- decrease of breathing rate (mice): 1.7 fold

Compound: COC(=O)[C@H](CC(C)C)NC(=O)[C@H](Cc1ccccc1)NC(=O)CNC(=O)CNC(=O)[C@H](Cc1ccc(O)cc1)NC(C)=O [KK-14]
- Recovered Peptide after 1 h in Mouse Plasma [%] [1]: 82 ± 5%

Compound: CC(C)C[C@H](NC(=O)[C@H](Cc1ccccc1)NC(=O)CNC(=O)CNC(=O)[C@H](Cc1ccc(O)cc1)NC(=O)C(C)(C)C)C(=O)O [KK-103]
- Recovered Peptide after 1 h in Mouse Plasma [%] [1]: 93 ± 1%
- extrapolated plasma half-life ([1]; mouse plasma in vitro, extrapolated from 5 h incubation): 37 h
- remaining at 5 h, 315 µmol/L ([1]; mouse, pooled mouse K2EDTA plasma, 5 h, plasma, read-out: intact peptide remaining in plasma after 5 h of incubation): > 90%
- increase of plasma half-life over Leu-ENK ([1]; plasma in vitro): ~ 90 fold and 90 fold
- remaining at 5 h, 315 µmol/L [3]: > 95%
- abnormal behaviors / clinical scores at maximum deliverable dose (female CD-1 mice [8]; s.c. 650 mg/kg): did not show any signs of abnormal behaviors
- maximum deliverable dose (safe) (female CD-1 mice [8]; s.c., limited by solubility): 650 mg/kg
- respiration rate versus vehicle (female CD-1 mice [5]; KK-103 13 mg/kg s.c., 30 to 240 min): comparable to that of mice treated with vehicle
- physical dependence, Nlx-induced jumps in first 10 min (female CD-1 mice [6]; KK-103 13 mg/kg twice daily): not a single jump was observed
- clinical health score (CHS) (female CD-1 mice [9]): 0

Compound: H2N-YGGFL-COOH
- cleaved bond (plasma): Tyr-Gly, first_seen; also recorded: Gly-Phe
- fragment found [10]: H2N-GGFL-COOH, major; also recorded: H2N-FL-COOH, major

Compound: C=CCCC(=O)N[C@@H](Cc1ccc(O)cc1)C(=O)NCC(=O)NCC(=O)N[C@@H](Cc1ccccc1)C(=O)N[C@@H](CC(C)C)C(=O)OC [KK-105]
- Recovered Peptide after 1 h in Mouse Plasma [%] [1]: 80 ± 7%
